Results as given in patent US20130150363A1, “Method of Treating Cancer Using a cMET and AXL Inhibitor and an ErbB Inhibitor” (GlaxoSmithKline, priority 2008, published 2013).
pIC50: −log10 of the molar value.

How the values were obtained:
lung_H1975 tumor cells = assay: Cell growth inhibition (CellTiter-Glo), H1975; assay type: cell-based; conditions: Homo sapiens, NCI-H1975, 72 h, 3 days
[1] = tested on: AGS gastric carcinoma cells; assay: Cell growth inhibition (CellTiter-Glo), AGS; assay type: cell-based; conditions: Homo sapiens, 72 h, gastric_AGS, 3 days
Text: (§1) Esophageal carcinoma cell line OE33 was purchased from ECACC European Collection of Cell Cultures (UK). Breast cancer cell line JIMT-1 and gastric carcinoma cell line MKN-45 were purchased from Deutsche Sammlung von Mikroorganismen and Zellkulturen GmbH (Germany); KPL-4, a human breast cancer cell line was kindly provided by Prof. J Kurebayashi (Kawasaki Medical School, Kurashiki, Japan). […] The LICR-LON-HN5 head and neck carcinoma cell line (HN5) was a gift from the Institute of Cancer Research, Surrey, U.K. HN5C12 was developed by single-cell cloning of HN5 followed by exposure to increasing concentrations of lapatinib. […] Cell growth inhibition was determined via CellTiter-Glo cell viability assays. […] ATP levels were determined by adding Cell Titer Glo0 (Promega), incubating for 20 minutes then the luminescent signal was read on the SpectraMax M5 plate with a 0.5 second integration time. Cell growth was calculated relative to vehicle (DMSO) treated control wells. […] CI values were calculated with the interpolated IC50 values and the mutually non-exclusive equation derived by Chou and […](a)+Db/IC50(b)+(Da×Db)/(IC50(a)×IC50(b)) where IC50(a) is the IC50 of the inhibitor A; IC50(b) is the IC50 for the inhibitor B; […] […] EOHSA at each dose was calculated as the minimum difference in average % inhibition between the combination and each monotherapy, from the appropriate ANOVA contrast. […]

[2] = tested on: N87 gastric carcinoma cells; assay: Cell growth inhibition (CellTiter-Glo), N87; assay type: cell-based; conditions: Homo sapiens, 72 h, 3 days
Text: Esophageal carcinoma cell line OE33 was purchased from ECACC European Collection of Cell Cultures (UK). Breast cancer cell line JIMT-1 and gastric carcinoma cell line MKN-45 were purchased from Deutsche Sammlung von Mikroorganismen and Zellkulturen GmbH (Germany); KPL-4, a human breast cancer cell line was kindly provided by Prof. J Kurebayashi (Kawasaki Medical School, Kurashiki, Japan). […] The LICR-LON-HN5 head and neck carcinoma cell line (HN5) was a gift from the Institute of Cancer Research, Surrey, U.K. HN5C12 was developed by single-cell cloning of HN5 followed by exposure to increasing concentrations of lapatinib. […] Cell growth inhibition was determined via CellTiter-Glo cell viability assays. […] BT474-J4 and HN5C12 were washed with PBS and plated in their culture media without lapatinib. […] ATP levels were determined by adding Cell Titer Glo0 (Promega), incubating for 20 minutes then the luminescent signal was read on the SpectraMax M5 plate with a 0.5 second integration time. Cell growth was calculated relative to vehicle (DMSO) treated control wells. […] EOHSA at each dose was calculated as the minimum difference in average % inhibition between the combination and each monotherapy, from the appropriate ANOVA contrast. […] The p-values for both synergy and antagonism were calculated using this adjustment.

[3] = tested on: HS746T gastric carcinoma cells; assay: Cell growth inhibition (CellTiter-Glo), HS746T; assay type: cell-based; conditions: Homo sapiens, HS746T (HER3-low)
Text: as §1

[4] = tested on: phosphorylation of HER2, AXL, AKT, ERK and cyclin D1 in BT474-J4 cells; assay: Western blot analysis, BT474-J4; conditions: BT474-J4, 1 μM each, 4 h
Description: (§2) Cells were plated at 250,000 to 500,000 per well in six-well plates (Falcon multiwell, Becton Dickinson, Franklin Lakes, N.J.). The following day, cells were treated with compounds in the growth medium containing 10% FBS. After treatment, cells were washed with cold PBS and lysed in the culture dishes using cell lysis buffer [40 mmol/L Tris-HCl (pH 7.4), 10% glycerol, 50 mmol/L beta-glycerophosphate, 5 mmol/L EGTA, 2 mmol/L EDTA, 0.35 mmol/L vanadate, 10 mmol/L NaF, and 0.3% Triton X-100] containing protease inhibitors (Complete Protease Inhibitor Tablets, Boehringer Mannheim, Indianapolis, Ind.). […] The membrane blots were rinsed with PBS and blocked in Odyssey Blocking buffer for 1 h at RT. Blots were probed with antibodies against specific proteins in blocking buffer plus 0.1% Tween 20 and incubated for 2 h at room temperature. The membranes were washed and incubated with IRDye 680 or IRDye 800 secondary antibodies at RT for 1 h in blocking buffer plus 0.1% Tween 20. The membranes were developed with Odyssey Infrared Imaging System (LI-COR Biosciences, Lincoln, Nebr.).
(§3) Cell lysate (50 μg of total protein) or proteins immunoprecipitated with anti-phospho-Tyrosine antibody were loaded in SDS-PAGE gel. The antibody against specific protein was used in the western blot analysis.

[5] = tested on: JIMT-1 breast cancer cells; assay: Cell growth inhibition (CellTiter-Glo), JIMT-1; assay type: cell-based; conditions: Homo sapiens, JIMT-1, 72 h, 3 days
Text: as §1

[6] = tested on: phosphorylation of HER2, AKT, ERK and cyclin D1 in BT474 cells; assay: Western blot analysis, BT474; assay type: cell-based, human; conditions: BT474, 1 μM, 4 h
Description: as §2, §3

[7] = tested on: OE33 esophageal carcinoma cells; assay: Cell growth inhibition (CellTiter-Glo), OE33; assay type: cell-based, human; conditions: 3 days
Text: Esophageal carcinoma cell line OE33 was purchased from ECACC European Collection of Cell Cultures (UK). Breast cancer cell line JIMT-1 and gastric carcinoma cell line MKN-45 were purchased from Deutsche Sammlung von Mikroorganismen and Zellkulturen GmbH (Germany); KPL-4, a human breast cancer cell line was kindly provided by Prof. J Kurebayashi (Kawasaki Medical School, Kurashiki, Japan). […] The LICR-LON-HN5 head and neck carcinoma cell line (HN5) was a gift from the Institute of Cancer Research, Surrey, U.K. HN5C12 was developed by single-cell cloning of HN5 followed by exposure to increasing concentrations of lapatinib. […] Cell growth inhibition was determined via CellTiter-Glo cell viability assays. […] BT474-J4 and HN5C12 were washed with PBS and plated in their culture media without lapatinib. […] ATP levels were determined by adding Cell Titer Glo0 (Promega), incubating for 20 minutes then the luminescent signal was read on the SpectraMax M5 plate with a 0.5 second integration time. Cell growth was calculated relative to vehicle (DMSO) treated control wells. […] Excess Over Highest Single Agent (EOHSA) is defined as a statistically significant improvement in the combination compared to the component monotherapies. […] Analysis was conducted using two-factor analysis of variance with interaction (model terms were dose of drug A, dose of drug B, and interaction between doses of drug A and B), followed by linear contrasts between each combination group and corresponding monotherapies. Analysis was conducted using SAS (version 9, provided by SAS Institute, Cary, N.C.). EOHSA at each dose was calculated as the minimum difference in average % inhibition between the combination and each monotherapy, from the appropriate ANOVA contrast. Since there are many comparisons for the % inhibition endpoint, p-value adjustment for multiple comparisons was performed. Hommel's procedure was implemented in order to improve the power while retaining […] Error Rate (FWE) control by using a sequentially rejective method. The p-values for both synergy and antagonism were calculated using this adjustment.

Compound | pIC50 (lung_H1975 tumor cells; lung_H1975, +HGF (2 ng/mL)) | pIC50 (lung_H1975 tumor cells; lung_H1975, −HGF) | pIC50 ([1]; +HGF (2 ng/mL)) | pIC50 ([1]; −HGF) | pIC50 ([2]; gastric_N87, +HGF (2 ng/mL)) | pIC50 ([2]; gastric_N87, −HGF) | pIC50 ([3]; +HRG (10 ng/mL)) | pIC50 ([3]; −HRG) | phosphorylation of HER2 [4] | pIC50 ([5]; breast_JimT1, +HGF (2 ng/mL)) | pIC50 ([5]; breast_JimT1, −HGF) | downstream signaling: phosphorylation of AKT and ERK, level of cyclin D1 [6] | phosphorylation of HER2 [6] | pIC50 ([7]; Homo sapiens, OE33, 72 h, eso_OE33, +HGF (2 ng/mL)) | pIC50 ([7]; Homo sapiens, OE33, 72 h, eso_OE33, −HGF) | pIC50 ([7]; eso_OE33, +HGF (2 ng/mL)) | pIC50 ([7]; eso_OE33, −HGF)
C#Cc1cccc(Nc2ncnc3cc(OCCOC)c(OCCOC)cc23)c1 [Erlotinib, N-(3-ethynylphenyl)-6,7-bis{[2-(methyloxy)ethyl]oxy}-4-quinazolinamine] | < 5.00 | < 5.00 | < 5.00 | < 5.00 | – | – | – | – | – | – | – | – | – | – | – | – | –
CS(=O)(=O)CCNCc1ccc(-c2ccc3ncnc(Nc4ccc(OCc5cccc(F)c5)c(Cl)c4)c3c2)o1 [Lapatinib, N-(3-chloro-4-{[(3-fluorophenyl)methyl]oxy}phenyl)-6-[5-({[2-(methylsulfonyl)ethyl]amino}methyl)-2-furanyl]-4-quinazolinamine] | – | – | – | – | 5.32 | 7.30 | 5.13 | 5.11 | inhibits | < 5.00 | < 5.00 | inhibits | inhibits | < 5.00 | 5.19 | 5.26 | 5.19
